Source: paper PMC4013123 (PLoS ONE, 2014)

Tests used:
D10-MPH = D10-MPH (Ochrobactrum sp. M231, UniProt B2Z3X1)
Source text: steady-state kinetics of purified enzyme (standard assay by reference) on D10-MPH

[1] = biological target: WT MPH (methyl parathion hydrolase) (Ochrobactrum sp. M231, UniProt B2Z3X1)
Source text: steady-state kinetics of purified enzyme (standard assay by reference) on WT MPH (methyl parathion hydrolase)

Sequence of D10-MPH (B2Z3X1 entry or part of it): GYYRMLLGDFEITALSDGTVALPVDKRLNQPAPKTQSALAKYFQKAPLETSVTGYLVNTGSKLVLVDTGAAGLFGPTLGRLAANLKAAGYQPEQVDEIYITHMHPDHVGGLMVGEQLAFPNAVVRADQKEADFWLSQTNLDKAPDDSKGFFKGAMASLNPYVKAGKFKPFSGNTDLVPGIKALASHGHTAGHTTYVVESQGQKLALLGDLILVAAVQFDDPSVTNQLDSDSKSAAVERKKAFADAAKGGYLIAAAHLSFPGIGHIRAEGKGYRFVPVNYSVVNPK
Sequence of WT MPH (methyl parathion hydrolase) (B2Z3X1 entry or part of it): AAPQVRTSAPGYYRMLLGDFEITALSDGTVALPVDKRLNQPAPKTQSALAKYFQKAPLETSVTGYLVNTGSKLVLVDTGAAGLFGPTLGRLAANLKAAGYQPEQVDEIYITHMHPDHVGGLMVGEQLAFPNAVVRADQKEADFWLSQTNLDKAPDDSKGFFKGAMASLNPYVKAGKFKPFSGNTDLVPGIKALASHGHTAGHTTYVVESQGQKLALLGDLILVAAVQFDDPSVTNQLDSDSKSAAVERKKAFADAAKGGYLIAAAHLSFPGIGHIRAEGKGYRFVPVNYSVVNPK

COP(=S)(OC)Oc1ccc([N+](=O)[O-])cc1 [methyl parathion]
Km (D10-MPH): 86.9 ± 4.01 µM
Km [1]: 73.2 ± 4.7 µM
